Experimental findings from patent publication US12055536B2, “Device for detection of cellular stress” (Trustees of Boston University, priority 2021, dated 2024) are described below.

What all share (type): cell-based, human
The test system of one assay is COV362 cells. Nature of the assay: Cell viability assay (dose-response). To be noted: read-out: IC50 for cisplatin. Here is the method:
(§1) Cell viability was measured by MTS assay (Abcam, #ab197010) or by CellTiter-Glo™ assay (Promega, #G7570). Cells were seeded at 96-well plates at densities of 2000˜5000 cells per well overnight. Treatment was added to the cells at indicated concentrations for 72 h. Cell viability was measured by incubating with MTS reagent for 4 h and reading absorbance at 490 nm or incubating with CellTier-Glo™ reagent for 10 min and reading luminescence by a plate reader. Six replicates were used for each group.
(§2) In addition, isogenic PEO1/PEO4 cell lines derived from the same patient were studied, at the time of a platinum sensitive (PEO1) and platinum resistant-recurrence (PEO4).
(§3) Having shown decreased glucose-derived anabolism and increased fatty acid uptake in cisplatin-resistant ovarian cancer cells, whether this metabolic feature can be used for differentiation of cisplatin-resistant from cisplatin-sensitive cancer cells was explored. […] In Table 2 below, quantitation of glucose-d7 (G-d7), PA-d31, and OA-d34 are shown as area fraction of C-D signal out of total cellular area, in mean values.

For another assay, the system named is COV362-cisR cells. Nature of the assay: Cell viability assay (dose-response). To be noted: read-out: IC50 for cisplatin; COV362-cisR cells. The procedure:
as §1, §2, §3

Assay [1] deals with OVCAR5 cells. Nature of the assay: Cell viability assay (dose-response). The following applies: read-out: IC50 for cisplatin; OVCAR5 cells. Here is the method: as §1, §2, §3
Assay [2] relates to OVCAR5-cisR cells. Nature of the assay: Cell viability assay (dose-response). To be noted: read-out: IC50 for cisplatin; OVCAR5-CisR cells. The procedure: as §1, §2, §3
Assay [3] has as its system PEO1 cells. Nature of the assay: Cell viability assay (dose-response). The following applies: read-out: IC50 for cisplatin; PE01 cells. The procedure:
as §1, §2, §3

In assay [4] the test system is PEO4 cells. Nature of the assay: Cell viability assay (dose-response). The following applies: read-out: IC50 for cisplatin; PE04 cells. The procedure: as §1, §2, §3
Another assay deals with SKOV3-cisR cells. Nature of the assay: Cell viability assay (dose-response). To be noted: read-out: IC50 for cisplatin; SKOV3-CisR cells. The procedure: as §1, §2, §3
Assay [5] concerns cisplatin-resistant OC cell lines. Nature of the assay: Cisplatin dose response, resistant versus parental cell lines. The following applies: all the resistant cell lines versus parental. The text has this:
Ovarian cancer cell lines used in the methods include SKOV3, PEO1, OVCAR5, and COV362, and their cisplatin-resistant counterparts include SKOV3-cisR, PEO4, OVCAR5-cisR, and COV362-cisR. SKOV3 (Cat #: HTB-77), Mia Paca2 (Cat #: CRL-1420), MDA-MB-231 (Cat #: CRM-HTB-26) and A549 (Cat #: CCL-185) cells were purchased from the American Type Culture Collection (ATCC, Manassas, VA). PEO1 (Cat #: 10032308) and PEO4 (Cat #: 10032309) were purchased from Sigma Aldrich. OVCAR5 cells were a generous gift from Dr. Marcus Peter, Northwestern University, and COV362 cells were from Dr. Kenneth Nephew, Indiana University. All cell lines were authenticated and tested to be mycoplasma negative. Mia Paca2 and A549 are in the list of known misidentified cell lines maintained by the International Cell Line Authentication Committee, while their authentication was performed by ATCC through STR profiling. […] Surviving cells were allowed to recover for 3 to 4 weeks before receiving the next treatment. […]
Cell viability was measured by MTS assay (Abcam, #ab197010) or by CellTiter-Glo™ assay (Promega, #G7570). […] Cell viability was measured by incubating with MTS reagent for 4 h and reading absorbance at 490 nm or incubating with CellTier-Glo™ reagent for 10 min and reading luminescence by a plate reader. […]

The subject of assay [6] is PEO1 cells. Nature of the assay: OCR and ECAR by Seahorse analysis. To be noted: 13.2 μM cisplatin. The procedure: (§4) Cell lines were seeded in a Seahorse® XF96 Cell Culture Microplate (Agilent) at density of 6×10^4 (OVCAR5 pair) or 4×10^4 (PEO pair) per well. After incubation at 37° C. overnight for cell attachment, OCR, and extracellular acidification rate (ECAR) were measured through Seahorse® XFe96 Analyzer (Agilent). Measurement time was 30 seconds following 3 minutes mixture and 30 seconds waiting time. First three cycles were used for basal respiration measurement. […] Basal respiration, ATP production and maximal respiration reduction were calculated following the manufacturer's instructions.

Assay [7] deals with PEO4 cells. Nature of the assay: OCR and ECAR by Seahorse analysis. The following applies: 13.2 μM cisplatin. Here is the method: as §4
In assay [8] the test system is OVCAR5 cells. Nature of the assay: Reactive oxidative species measurement (DCFDA). The following applies: cisplatin 1.6 μM or 3.3 μM for 24 hours. The procedure: (§5) Cellular reactive oxidative species (ROS) was measured using a fluorescent probe, 2′,7′-Dichlorofluorescin diacetate (DCFDA) (Sigma Aldrich). […] DCFDA was added to the medium at final concentration of 10 μM and incubated for 15 min. After washing with PBS for 3 times, cells were immediately imaged under confocal microscope (Zeiss LSM 700 microscope) with 488 nm as the exciting source. Laser power was controlled at low setting to avoid fluorescence extinction. Images at ˜10 field of view were acquired for each sample.

The test system of assay [9] is OVCAR5-cisR cells. Nature of the assay: Reactive oxidative species measurement (DCFDA). The following applies: cisplatin 1.6 μM or 3.3 μM for 24 hours. Here is the method: as §5
For assay [10], the system named is OVCAR5 cells. Nature of the assay: Glucose uptake assay (2-NBDG). The following applies: 3.3 μM cisplatin for 24 hours, 100 μM 2-NBDG for 2 hours. Here is the method: Glucose uptake was measured using a fluorescent glucose analog 2-deoxy-2-[(7-nitro-2,1,3-benzoxadiazol-4-yl) amino]-D-glucose (2-NBDG) (Cayman Chemicals). Cells seeded in glass-bottom dishes were incubated with 100 μM 2-NBDG for 2 h. Fluorescent images were taken by confocal microscope (Zeiss® LSM 700 microscope) with 488 nm laser as excitation source. Images at ˜10 field of view were acquired for each sample.

A further assay has as its system A549 lung cancer. Nature of the assay: Cell viability assay (dose-response). To be noted: 6.6 μM cisplatin. Here is the method: as §1
(§6) Platinum is widely used across malignancies. […] These findings are broadly applicable to multiple types of cisplatin-resistant cancers. FIG. 8 illustrates the cellular metabolism switch from glycolysis to fatty acid oxidation with decreased glucose uptake, glycolysis and de novo lipogenesis while fatty acid uptake and oxidation are increased.

For the next assay, the system named is MD-MBA231 breast cancer. Nature of the assay: Cell viability assay (dose-response). The following applies: 6.6 μM cisplatin. The procedure: as §1, §6
Assay [11] concerns MIA PaCa-2 pancreatic cancer. Nature of the assay: Cell viability assay (dose-response). To be noted: 6.6 μM cisplatin. The procedure:
as §1, §6

A further assay concerns A549 cells. Nature of the assay: Isotope labeling and SRS imaging after cisplatin treatment. To be noted: 13.2 μM cisplatin for 48 hours, then 100 μM PA-d31 or OA-d34 for 6 h. Here is the method:
(§7) For labeling with glucose-d7, media was replaced with glucose-free DMEM medium (Thermo Fisher Scientific, #11966025)+10% FBS+P/S supplemented with 25 mM glucose-d7 after seeding the cells in 35 mm glass-bottom dishes overnight. For labeling with FA or analogs, including PA-d31, OA-d34, and ODYA, FA or analogs were added to the culture media at final concentration of 100 μM and cells were treated for 6 h. For quantitative SRS imaging, cells on glass-bottom dishes were fixed with 10% neutral buffered formalin for 30 min and washed with PBS for 3 times. Hyperspectral SRS imaging was performed to the cells at Raman spectral region from 2100 to 2300 cm^−1.
as §6

A further assay deals with MD-MBA231 cells. Described as above. To be noted: 6.6 μM cisplatin for 24 hours, then 100 μM PA-d31 or OA-d34 for 6 h. The procedure: as §7, §6
A further assay concerns MIA PaCa-2 cells. Described as above. To be noted: 6.6 μM cisplatin for 24 hours, then 100 μM PA-d31 or OA-d34 for 6 h. The procedure: as §7, §6

Regarding `N.N.[Cl][Pt][Cl]` [cisplatin], the IC50 was determined as 7.19 µM in the assay on COV362 cells; 15.2 µM in the assay on COV362-cisR cells; 8.26 µM in the assay on OVCAR5 cells [1]; 17.4 µM in the assay on OVCAR5-cisR cells [2]; 4.72 µM in the assay on PEO1 cells [3]; 13.6 µM in the assay on PEO4 cells [4]. Further, in the assay on SKOV3-cisR cells, the IC50 turned out to be 17.3 µM. In addition, the “increase of IC50 compared to parental counterpart cell lines” value in [5] was 2-3 fold. Further, the ECAR rate entry in the assay on PEO1 cells [6] and with PEO4 cells [7] was “promptly lowered” throughout. Further, the OCR result in the assay with PEO1 cells [6] (before and 30 minutes after) is recorded as “slight increase of OCR”; with PEO4 cells [7] (before and 30 minutes after), “slight increase of OCR”. The “ROS production (DCF fluorescent signal intensity)” value in the assay on OVCAR5 cells [8] and in the assay with OVCAR5-cisR cells [9] was “significant increase of ROS production” each time. In addition, the “glucose uptake, measured by 2-NBDG” value in the assay on OVCAR5 cells [10] was “reduced”. Further, the cell death entry (with A549 lung cancer; with MD-MBA231 breast cancer; in assay [11]) was “no significant cell death” each time. Besides, the “PA-d31 and OA-d34 uptake (C-D signal)” value with A549 cells and in the assay on MD-MBA231 cells was “significant increase” throughout. The “uptake of PA-d31 and OA-d34 (C-D signal)” value in the assay with MIA PaCa-2 cells is recorded as “significantly increased”.

Usually IC50 stands for the point on the concentration scale where inhibition reaches its midpoint.
